Results published in paper PMC9141032 (International Journal of Molecular Sciences, 2022).
Converted amounts (≈) assume the structure as drawn. “And” between values parts separate entries of the source, which are not always exact repeats. Equal values may be shown once.

Experiments:
primary microglial cells = test: Nitrite production (Griess) in LPS-treated primary microglia; details: 1 μM 1 h, then LPS 10 μg/mL 24 h
[1] = Metabolic stability in mouse liver microsomes; details: for % compound remaining: MLM
Description: The final concentration assay was 1
NADPH in 100 mM potassium phosphate buffer.
Spectrometer, Metabolite Pilot V 1.5 Software.
Method: Ionization mode, electrospray positive; adquisition mode, TOF MS with IDA MS/MS; column, Atlantis T3 C18, 2.1 x 15 mm, 3 μm; mobile phase, wa te r: acetonitrile: 0.1%: formic acid; flow rate, 0.3 mL/min; source temperature, 550 °C; column temperature, 25 °C; injection volume, 5 […]
concentration 1 mg/mL, NADPH 1.3 mM.
Table S5. Summary of LC‐MS conditions […]

[2] = Stability in mouse plasma; assay type: in vitro ADME; details: 10 µM, 37 °C
Description: The assessment of the plasma stability avoids misleading in vitro data and complex interpretation of the in vivo PK. […] Then, centrifugation led to a supernatant that was analysed for sample quantification.
Mouse plasma pooled from healthy donors extracted in citrate tubes was employed in the assay. […] Then, 100 µL of acetonitrile was added to precipitate the plasma protein, and the plate was centrifuged at 46,000× g for 60 min at 5 °C. Supernatant was taken and analysed by UPLC/MS/MS for sample quantification. The stationary phase was a reverse phase Acquity UPLC®BEH C18 1.7 µm (2.1 × 50 mm) (Waters), and the mobile phase was 0.1% formic acid in water/0.1% formic acid in acetonitrile, using a gradient and flow rate of 0.6 mL/min. The chromatographic equipment employed was an UPLC QSM Waters Acquity, and the compound concentrations were calculated from the MS peak areas.

[3] = In vivo pharmacokinetics in plasma; design: species or system mouse
Description: (§1) After treatment, mice were euthanized, and the plasma and brain were collected.
(§2) Male CD1 mice were supplied by the Laboratory Animal Service of the University of Granada (Granada, Spain) and housed in the Animal Facilities of the Center of Biomedical Investigation of the University of Granada. […] Calculations were performed using noncompartmental analysis of plasma data after intraperitoneal injection by means of PK Solver 2.0.
(§3) Basic PK parameters were calculated.

[4] = design: method as in ref 33 = [33]; PMID 32150414; doi:10.1021/acs.jmedchem.9b02080; 33. Abás S. Rodríguez-Arévalo S. Bagán A. Griñán-Ferré C. Vasilopoulou F. Brocos-Mosquera I. Muguruza C. Pérez B. Molins E. Luque F.J. Bicyclic α-Iminophosphonates as High Affinity Imidazoline I 2 Rec; details: 1% DMSO and 99% PBS buffer; cited from earlier work
SH-SY5Y cells [5] = test: Nitrite production (Griess) in 6-OHDA-treated SH-SY5Y cells; assay type: cell-based, human; details: 1 μM, 6-OHDA 25 μM 16 h
Text: Along with the neuronal loss, neuroinflammation is a process related to the onset of the disease, and it is an important contributor to the pathogenesis and progression of these disorders. […] .

[6] = Chemical stability in buffers at pH 2, 5 and 7.4
SH-SY5Y cells [7] = test: Cytotoxicity in SH-SY5Y cells (MTT); details: 24 h, 0.2 to 20 μM
culture cells = system: culture cells; design: method as in ref 32, 33 = [32]; 32. Escolano C. Pallás M. Griñán-Ferré C. Abás S. Callado L.-F. García-Sevilla J.A. Synthetic I 2 Imidazoline Receptor Ligands for Prevention or Treatment of Human Brain Disorders Patent WO 2019/12185 || [33]; PMID 32150414; doi:10.1021/acs.jmedchem.9b02080; 33. Abás S. Rodríguez-Arévalo S. Bagán A. Griñán-Ferré C. Vasilopoulou F. Brocos-Mosquera I. Muguruza C. Pérez B. Molins E. Luque F.J. Bicyclic α-Iminophosphonates as High Affinity Imidazoline I 2 Rec; details: plethora of culture cells; cited from earlier work
[8] = In vivo pharmacokinetics in brain; details: male, CD1, mouse, ip, mice, 10 mg/kg intraperitoneal
Description: as §1, §2, §3

[9] = male, CD1, mouse, ip, plasma, mice, 10 mg/kg intraperitoneal
[10] = plasma, mice, 10 mg/kg intraperitoneal

**Q.** With `CCOP(=O)(OCC)[C@]1(c2ccccc2)N=C[C@H]2C(=O)N(c3ccc(F)c(Cl)c3)C(=O)[C@H]21` (racemic) [B06, diethyl (1RS,3aSR,6aSR)-5-(3-chloro-4-fluorophenyl)-4,6-dioxo-1-phenyl-1,3a,4,5,6,6a-hexahydropyrrolo[3,4-c]pyrrole-1-phosphonate] as the molecule, how does the “effect on nitrite production” value (primary microglial cells) read?
**A.** significant decrease in nitrite production

**Q.** And the “% compound remaining” value ([1]; minus NADPH, 0 min)?
**A.** 105.00 ± 23.97%

**Q.** What about the “% compound remaining” value ([1]; minus NADPH, 60 min) of the same molecule?
**A.** 83.20 ± 2.87%

**Q.** What about the “% compound remaining” value ([1]; plus NADPH, 0 min) of the same molecule?
**A.** 100.00 ± 25.58%

**Q.** What about the “% compound remaining” value ([1]; plus NADPH, 5 min) of the same molecule?
**A.** 135.00 ± 7.06%

**Q.** What about the “% compound remaining” value ([1]; plus NADPH, 15 min) of the same molecule?
**A.** 67.50 ± 4.15%

**Q.** And the “% compound remaining” value ([1]; plus NADPH, 30 min)?
**A.** 30.30 ± 5.28%

**Q.** And the “% compound remaining” value ([1]; plus NADPH, 45 min)?
**A.** 15.20 ± 1.98%

**Q.** What about the “% compound remaining” value ([1]; plus NADPH, 60 min) of the same molecule?
**A.** 6.08 ± 0.01%

**Q.** And the half-life at 1 μM ([1]; mouse, microsomes)?
**A.** 16.2 min

**Q.** What about the “remaining percentage in mouse plasma” value ([2]; 0 min) of the same molecule?
**A.** 100%

**Q.** And the “remaining percentage in mouse plasma” value ([2]; 10 min)?
**A.** 100%

**Q.** And the “remaining percentage in mouse plasma” value ([2]; 20 min)?
**A.** 69.7%

**Q.** What about the “remaining percentage in mouse plasma” value ([2]; 40 min) of the same molecule?
**A.** 48.3%

**Q.** And the “remaining percentage in mouse plasma” value ([2]; 60 min)?
**A.** 21.6%

**Q.** And the AUC(0-inf) [3, 9]?
**A.** 3050 ng·h/mL

**Q.** What about the Tmax [3, 9] of the same molecule?
**A.** 15 min

**Q.** And the Cmax ([3]; male, CD1, mouse, ip, plasma, mice, 10 mg/kg intraperitoneal, single dose)?
**A.** 950 ± 624 ng/mL

**Q.** And the AUC(0-t) ([3]; male, CD1, mouse, ip, plasma, mice, 10 mg/kg intraperitoneal, read-out: AUC0–1440 (converted))?
**A.** 2950 ng·h/mL

**Q.** What about the half-life ([3]; male, CD1, mouse, plasma, ip, 10 mg/kg, mice, 10 mg/kg intraperitoneal) of the same molecule?
**A.** 313 min

**Q.** And the “Cl (plasma clearance)” value [3, 10]?
**A.** 0.054 ± 0.011 (mg/kg)/(μg/mL)

**Q.** And the “Vz (volume of distribution)” value [3, 10]?
**A.** 24.56 ± 4.74 (mg/kg)/(μg/mL)

**Q.** And the t1/2 ([3]; plasma, mice, 10 mg/kg intraperitoneal, 10 mg/kg)?
**A.** 312.81 min

**Q.** And the “maximum mean concentration in plasma as % of the drug administered” value ([3]; single dose intraperitoneally)?
**A.** ≤ 1%

**Q.** What about the solubility [4] of the same molecule?
**A.** 92 µM (≈ 44.1 µg/mL)

**Q.** And the “effect on nitrite production” value (SH-SY5Y cells [5])?
**A.** significantly reversed the increase in nitrite production

**Q.** What about the “% B06 Remaining” value ([6]; pH 2, 37 °C, 0 min) of the same molecule?
**A.** 100 ± 8.84%

**Q.** What about the “% B06 Remaining” value ([6]; pH 2, 37 °C, 5 min) of the same molecule?
**A.** 104 ± 9.81%

**Q.** And the “% B06 Remaining” value ([6]; pH 2, 37 °C, 15 min)?
**A.** 98 ± 11.30%

**Q.** What about the “% B06 Remaining” value ([6]; pH 2, 37 °C, 30 min) of the same molecule?
**A.** 106 ± 9.97%

**Q.** And the “% B06 Remaining” value ([6]; pH 2, 37 °C, 60 min)?
**A.** 112 ± 11.2%

**Q.** What about the “% B06 Remaining” value ([6]; pH 2, 37 °C, 120 min) of the same molecule?
**A.** 96 ± 13.6%

**Q.** And the “chemical stability” value ([6]; pH 2, up to 120 min)?
**A.** stable at pH 2

**Q.** And the “chemical stability” value ([6]; pH 5)?
**A.** stable up to 1 h

**Q.** What about the “% B06 Remaining” value ([6]; pH 5, 37 °C, 0 min) of the same molecule?
**A.** 100 ± 3.3%

**Q.** And the “% B06 Remaining” value ([6]; pH 5, 37 °C, 5 min)?
**A.** 97 ± 6.5%

**Q.** What about the “% B06 Remaining” value ([6]; pH 5, 37 °C, 15 min) of the same molecule?
**A.** 100 ± 3.9%

**Q.** What about the “% B06 Remaining” value ([6]; pH 5, 37 °C, 30 min) of the same molecule?
**A.** 87 ± 11.3%

**Q.** And the “% B06 Remaining” value ([6]; pH 5, 37 °C, 60 min)?
**A.** 98 ± 10.1%

**Q.** What about the “% B06 Remaining” value ([6]; pH 5, 37 °C, 120 min) of the same molecule?
**A.** 75 ± 8.5%

**Q.** And the “% of the compound that suffered structural changes” value ([6]; pH 5, between 1 h and 2 h)?
**A.** 25%

**Q.** What about the “% B06 Remaining” value ([6]; pH 7.4, 37 °C, 0 min) of the same molecule?
**A.** 100 ± 2.9%

**Q.** And the “% B06 Remaining” value ([6]; pH 7.4, 37 °C, 15 min)?
**A.** 77 ± 3.8%

**Q.** What about the “% B06 Remaining” value ([6]; pH 7.4, 37 °C, 30 min) of the same molecule?
**A.** 75% and 75 ± 5.6%

**Q.** And the “% B06 Remaining” value ([6]; pH 7.4, 37 °C, 60 min)?
**A.** 53 ± 6.4%

**Q.** And the “% B06 Remaining” value ([6]; pH 7.4, 37 °C, 120 min)?
**A.** 19% and 19 ± 1.9%

**Q.** What about the “% of the compound transformed” value ([6]; pH 7.4, 15 min) of the same molecule?
**A.** 25%

**Q.** And the “cytotoxic effect on cell cultures (MTT)” value (SH-SY5Y cells [7])?
**A.** None of the concentrations used were cytotoxic

**Q.** What about the cytotoxicity (culture cells) of the same molecule?
**A.** devoid of cytotoxicity

**Q.** What about the AUC(0-inf) ([8]; in vivo) of the same molecule?
**A.** 3310 ng·h/mL

**Q.** And the Cmax ([8]; in vivo)?
**A.** 128 ± 66 ng/mL

**Q.** What about the Tmax ([8]; in vivo) of the same molecule?
**A.** 15 min

**Q.** What about the AUC(0-t) ([8]; in vivo, read-out: AUC0–480 (converted)) of the same molecule?
**A.** 2320 ng·h/mL

**Q.** And the half-life [8]?
**A.** 257 min
